The nature of the assay: Inhibition of ACK1 in mouse C8 cells assessed as decrease in cell viability after 20 to 24 hrs.

In the case of `Cc1ccccc1-c1c(-c2ccc(OCCN3CCCC3)cc2)[nH]c2ncnc(NC[C@@H]3CCCO3)c12`, the IC50 (as a rule, the point on the concentration scale where inhibition reaches its midpoint) stood at 160 nM.

As for `Fc1ccccc1-c1c(-c2ccc(OCCN3CCCC3)cc2)[nH]c2ncnc(NC[C@@H]3CCCO3)c12`, the IC50 came to 40 nM. For the molecule `CN(C)CCOc1ccc(-c2[nH]c3ncnc(NCC4SCCS4)c3c2-c2ccccc2)cc1`, the IC50 stood at 5 nM. Consider `CN(C)CCOc1ccc(-c2oc3ncnc(NCC4SCCS4)c3c2-c2ccccc2)cc1`, for which the IC50 was determined as 10 nM. `c1ccc(-c2c(-c3ccc(OCCN4CCCC4)cc3)[nH]c3ncnc(NCC4SCCS4)c23)cc1`: the IC50 came out at 10 nM. In the case of `CN(C)CCOc1ccc(-c2oc3ncnc(NCC4CCCS4)c3c2-c2ccccc2)cc1` (stereo not given), the IC50 was determined as 3000 nM.

Consider `CN(C)CCOc1ccc(-c2oc3ncnc(NCC4OCCO4)c3c2-c2ccccc2)cc1`, for which the IC50 is 2000 nM. In the case of `CN(C)CCOc1ccc(-c2oc3ncnc(NC[C@@H]4CCCCS4)c3c2-c2ccccc2)cc1` it was 7160 nM; in that of `CN(C)CCOc1ccc(-c2oc3ncnc(NCC4SCCCS4)c3c2-c2ccccc2)cc1`, 550 nM; in that of `CN(C)CCOc1ccc(-c2[nH]c3ncnc(NC[C@@H]4CC[C@H]4O)c3c2-c2ccccc2)cc1`, 410 nM.

On to `CN(C)CCOc1ccc(-c2[nH]c3ncnc(NC[C@H]4CCC[C@H]4O)c3c2-c2ccccc2)cc1`, for which the IC50 was 460 nM. For `CO[C@@H]1CCC[C@@H]1CNc1ncnc2[nH]c(-c3ccc(OCCN(C)C)cc3)c(-c3ccccc3)c12` the value was 780 nM; for `CO[C@@H]1CCC[C@H]1CNc1ncnc2[nH]c(-c3ccc(OCCN(C)C)cc3)c(-c3ccccc3)c12`, 1300 nM; for `c1cncc(-c2c(-c3ccc(OCCN4CCCC4)cc3)[nH]c3ncnc(NC[C@@H]4CCCO4)c23)c1`, 390 nM.

On to `COc1cccc(-c2c(-c3ccc(OCCN4CCCC4)cc3)[nH]c3ncnc(NC[C@@H]4CCCO4)c23)c1`, for which the IC50 turned out to be 160 nM. For the molecule `c1ccc(-c2[nH]c3ncnc(NC[C@@H]4CCCO4)c3c2-c2ccccc2)cc1`, the IC50 was determined as 620 nM. In the case of `COc1ccc(-c2oc3ncnc(NC[C@@H]4CCCO4)c3c2-c2ccccc2)cc1` it was 550 nM; in that of `COc1ccc(-c2[nH]c3ncnc(NC[C@@H]4CCCO4)c3c2-c2ccccc2)cc1`, 350 nM. For `CS(=O)(=O)c1ccc(-c2oc3ncnc(NC[C@@H]4CCCO4)c3c2-c2ccccc2)cc1`, the concentration for half-maximal inhibition (IC50) worked out at 250 nM. Regarding `CS(=O)(=O)c1ccc(-c2[nH]c3ncnc(NC[C@@H]4CCCO4)c3c2-c2ccccc2)cc1`, the IC50 was determined as 100 nM.

Take `CN(C)S(=O)(=O)c1ccc(-c2[nH]c3ncnc(NC[C@@H]4CCCO4)c3c2-c2ccccc2)cc1`: the IC50 came out at 90 nM. For `CNS(=O)(=O)c1ccc(-c2oc3ncnc(NC[C@@H]4CCCO4)c3c2-c2ccccc2)cc1` the value was 300 nM. As for `CNS(=O)(=O)c1ccc(-c2[nH]c3ncnc(NC[C@@H]4CCCO4)c3c2-c2ccccc2)cc1`, the IC50 is 40 nM. For `CN(C)CCOc1ccc(-c2[nH]c3ncnc(NC[C@@H]4CCCO4)c3c2-c2ccccc2)cc1`, the IC50 was found to be 20 nM.

For the molecule `c1ccc(-c2c(-c3ccc(OCCN4CCOCC4)cc3)oc3ncnc(NC[C@@H]4CCCO4)c23)cc1`, the IC50 is 160 nM.

For the molecule `c1ccc(-c2c(-c3ccc(OCCN4CCOCC4)cc3)[nH]c3ncnc(NC[C@@H]4CCCO4)c23)cc1`, the IC50 worked out at 80 nM. In the case of `c1ccc(-c2c(-c3ccc(OCCN4CCCC4)cc3)[nH]c3ncnc(NC[C@@H]4CCCO4)c23)cc1` it was 60 nM; in that of `O=C1CCCN1CCOc1ccc(-c2oc3ncnc(NC[C@@H]4CCCO4)c3c2-c2ccccc2)cc1`, 230 nM; in that of `O=C1CCCN1CCOc1ccc(-c2[nH]c3ncnc(NC[C@@H]4CCCO4)c3c2-c2ccccc2)cc1`, 20 nM. With `CN(C)C(=O)c1ccc(-c2oc3ncnc(NC[C@@H]4CCCO4)c3c2-c2ccccc2)cc1`, the IC50 worked out at 180 nM. In the case of `CN(C)C(=O)c1ccc(-c2[nH]c3ncnc(NC[C@@H]4CCCO4)c3c2-c2ccccc2)cc1` it was 20 nM; in that of `CNC(=O)c1ccc(-c2[nH]c3ncnc(NC[C@@H]4CCCO4)c3c2-c2ccccc2)cc1`, 40 nM. Regarding `O=C(c1ccc(-c2oc3ncnc(NC[C@@H]4CCCO4)c3c2-c2ccccc2)cc1)N1CCOCC1`, the IC50 was found to be 190 nM.

Turning to `O=C(c1ccc(-c2[nH]c3ncnc(NC[C@@H]4CCCO4)c3c2-c2ccccc2)cc1)N1CCOCC1`, the half-maximal inhibitory concentration (IC50) came out at 20 nM. For the molecule `CN(C)CCOc1ccc(-c2[nH]c3ncnc(NC[C@@H]4CCCO4)c3c2C2=CCCCC2)cc1`, the IC50 is 500 nM. For `CN(C)CCOc1ccc(-c2[nH]c3ncnc(NC[C@@H]4CCCO4)c3c2C2=CCCC2)cc1` the value was 240 nM; for `CO[C@@H]1CC[C@H]1CNc1ncnc2[nH]c(-c3ccc(OCCN(C)C)cc3)c(-c3ccccc3)c12`, 420 nM. Consider `CNC(=O)c1ccc(-c2oc3ncnc(NC[C@@H]4CCCO4)c3c2-c2ccccc2)cc1`, for which the IC50 turned out to be 2050 nM. Regarding `CN(C)CCOc1ccc(-c2oc3ncnc(NC[C@@H]4CCCO4)c3c2-c2ccccc2)cc1` [(S)-6-(4-(2-(dimethylamino)ethoxy)phenyl)-5-phenyl-N-((tetrahydrofuran-2-yl)methyl)furo[2,3-d]pyrimidin-4-amine], the IC50 stood at 30 nM. Take `c1ccc(-c2oc3nccc(NC[C@@H]4CCCO4)c3c2-c2ccccc2)cc1` [N-[(2S)-oxolan-2-ylmethyl]-2,3-diphenylfuro[2,3-b]pyridin-4-amine]: the IC50 worked out at 5600 nM.

The values above are taken from BindingDB's records for doi:10.1016/j.bmcl.2012.08.020 (Amgen, 2012).
